Laboratory results taken from ChEMBL document CHEMBL3992507, “Design, synthesis and evaluation of 4-aminoquinoline-purine hybrids as potential antiplasmodial agents” (Eur J Med Chem, 2017).
Active and inactive are the calls of the source. The calls are words filed in the database; no cut-off is given here.

How the values were obtained:
[1] = Selectivity index, ratio of IC50 for African green monkey Vero cells to IC50 for chloroquine-sensitive Plasmodium falciparum D6 infected in human RBC; assay type: toxicity; details: read-out: Ratio IC50
[2] = test system: Plasmodium falciparum; experiment: Antiplasmodial activity against chloroquine-sensitive Plasmodium falciparum D6 infected in human RBC assessed as decrease in parasite viability after 72 hrs by LDH assay; assay type: functional; details: D6, 72 h
[3] = test system: Plasmodium falciparum; experiment: Antiplasmodial activity against chloroquine-resistant Plasmodium falciparum W2 infected in human RBC assessed as decrease in parasite viability after 72 hrs by LDH assay; assay type: functional; details: W2, 72 h
[4] = test system: Vero; experiment: Cytotoxicity against African green monkey Vero cells after 48 hrs by neutral red uptake assay; assay type: cell-based; details: Chlorocebus sabaeus
[5] = Selectivity index, ratio of IC50 for African green monkey Vero cells to IC50 for chloroquine-resistant Plasmodium falciparum W2 infected in human RBC; assay type: toxicity; details: read-out: Ratio IC50
[6] = test system: Plasmodium falciparum; experiment: Potency index, ratio of chloroquine IC50 to compound IC50 for chloroquine-resistant Plasmodium falciparum W2; assay type: functional
[7] = test system: Heme; experiment: Binding affinity to monomeric heme (unknown origin) assessed as 1:1 stoichiometry for heme-compound complex at 10 uM at pH 5.6 and 7.4 by Job's plot analysis
[8] = test system: Heme; experiment: Binding affinity to monomeric heme (unknown origin) assessed as decrease in intensity of soret band at 402 nm at pH 5.6 and 7.4 by spectrophotometric titration method
[9] = Binding affinity to dimeric heme (unknown origin) assessed as change in absorbance band intensity at 362 nm at 10 uM at pH 5.6 by spectrophotometric titration method

Row | Structure (SMILES) | selectivity ratio [1] | IC50 [2] | IC50 [3] | IC50 [4] | selectivity ratio [5] | Ratio IC50 [6] | Activity [7] | Activity [8] | Activity [9]
1 | Clc1ccc2c(NCCn3cnc4c(N5CCCCC5)nc(Cl)nc43)ccnc2c1 | > 31.1 | 0.347 µM | 2.45 µM | > 10.8 µM | > 4.4 | – | – | – | –
2 | CCN1CCN(c2nc(Cl)nc3c2ncn3CCCNc2ccnc3cc(Cl)ccc23)CC1 | > 101 | 0.097 µM | 0.198 µM | > 9.83 µM | > 49.5 | – | – | – | –
3 | CN1CCN(c2nc(Cl)nc3c2ncn3CCCNc2ccnc3cc(Cl)ccc23)CC1 | > 145 | 0.069 µM | 0.185 µM | > 10.1 µM | > 54.5 | – | – | – | –
4 | CN(C)c1nc(Cl)nc2c1ncn2CCCNc1ccnc2cc(Cl)ccc12 | > 45 | 0.254 µM | 1.09 µM | > 11.5 µM | > 10.5 | – | – | – | –
5 | C[C@@H]1CC[C@H]2[C@@H](C)C(=O)O[C@@H]3O[C@@]4(C)CC[C@@H]1[C@]32OO4 [ARTEMISININ] | – | 0.025 µM | – | > 16.9 µM | – | – | – | – | –
6 | Clc1ccc2c(NCCCn3cnc4c(N5CCOCC5)nc(Cl)nc43)ccnc2c1 | > 12.5 | 0.833 µM | 1.15 µM | > 10.4 µM | > 9.1 | – | – | – | –
7 | Clc1ccc2c(NCCCn3cnc4c(N5CCCCC5)nc(Cl)nc43)ccnc2c1 | > 3.1 | 3.33 µM | 3.76 µM | > 10.5 µM | > 2.8 | – | – | – | –
8 | CN(C)c1nc(Cl)nc2c1ncn2CCNc1ccnc2cc(Cl)ccc12 | > 46.6 | 0.254 µM | 0.361 µM | > 11.9 µM | > 32.8 | – | – | – | –
9 | Clc1ccc2c(NCCn3cnc4c(N5CCCCCC5)nc(Cl)nc43)ccnc2c1 | > 24.9 | 0.419 µM | 0.729 µM | > 10.5 µM | > 14.3 | – | – | – | –
10 | Clc1ccc2c(NCCCn3cnc4c(N5CCSCC5)nc(Cl)nc43)ccnc2c1 | > 22.6 | 0.446 µM | 1.8 µM | > 10.1 µM | > 5.6 | – | – | – | –
11 | CCN(CC)c1nc(Cl)nc2c1ncn2CCNc1ccnc2cc(Cl)ccc12 | > 2.4 | 4.65 µM | 6.76 µM | > 11.1 µM | > 1.6 | – | – | – | –
12 | Clc1ccc2c(NCCn3cnc4c(N5CCN(c6ccccc6)CC5)nc(Cl)nc43)ccnc2c1 | 26.2 | 0.154 µM | 0.428 µM | 4.04 µM | 9.4 | – | – | – | –
13 | CCN(CC)c1nc(Cl)nc2c1ncn2CCCNc1ccnc2cc(Cl)ccc12 | > 19.3 | 0.556 µM | 0.983 µM | > 10.7 µM | > 10.9 | – | – | – | –
14 | CCN(CC)CCCC(C)Nc1ccnc2cc(Cl)ccc12 (configuration not stated) [CHLOROQUINE] | – | – | – | > 14.9 µM | – | – | – | – | –
15 | Clc1ccc2c(NCCn3cnc4c(N5CCOCC5)nc(Cl)nc43)ccnc2c1 | > 53.4 | 0.201 µM | 0.226 µM | > 10.7 µM | > 47.4 | – | – | – | –
16 | Clc1ccc2c(NCCn3cnc4c(N5CCSCC5)nc(Cl)nc43)ccnc2c1 | 19.5 | 0.292 µM | 0.59 µM | 5.68 µM | 9.6 | – | – | – | –
17 | CN1CCN(c2nc(Cl)nc3c2ncn3CCNc2ccnc3cc(Cl)ccc23)CC1 | > 124 | 0.084 µM | 0.122 µM | > 10.4 µM | > 85.4 | – | – | – | –
18 | Clc1ccc2c(NCCCn3cnc4c(N5CCCC5)nc(Cl)nc43)ccnc2c1 | > 10 | 1.07 µM | 1.77 µM | > 10.8 µM | > 6.1 | – | – | – | –
19 | Clc1ccc2c(NCCCn3cnc4c(N5CCN(c6ccccc6)CC5)nc(Cl)nc43)ccnc2c1 | > 47.6 | 0.187 µM | 0.504 µM | > 8.9 µM | > 17.7 | – | – | – | –
20 | Clc1ccc2c(NCCCn3cnc4c(N5CCCCCC5)nc(Cl)nc43)ccnc2c1 | > 8.3 | 1.23 µM | 2.38 µM | > 10.1 µM | > 4.3 | – | – | – | –
21 | Clc1ccc2c(NCCn3cnc4c(N5CCCC5)nc(Cl)nc43)ccnc2c1 | > 25 | 0.445 µM | 0.984 µM | > 11.1 µM | > 11.3 | – | – | – | –
22 | CCN1CCN(c2nc(Cl)nc3c2ncn3CCNc2ccnc3cc(Cl)ccc23)CC1 | > 164 | 0.061 µM | 0.08 µM | > 10.1 µM | > 125 | 6 | Active | Active | Active
